Reference: US11021598B2, “Resin molded product, laminate, and decorative sheet” (TOPPAN PRINTING CO., LTD., priority 2017, dated 2021)

Key:
[1] = pKa of photostabilizer (half neutralization potential titration); type: physicochemical; details: non-aqueous titration, HNP calibration curve
Protocol: (Method of Measuring pKa of Photostabilizer)
A solution of 0.1 N perchloric acid/dioxane and acetonitrile:chloroform=1:1 was added dropwise to an organic reference substance having known pKa value in an aqueous system to determine the half neutralization potential (HNP) by titration in a non-aqueous system. A plot of the HNP calibration curve for pKa was prepared. Then, titration was performed for the photostabilizer in the same manner to determine a corresponding pKa from the plot of calibration curve.

[2] = pKa of ultraviolet absorber upon light absorption; type: physicochemical; details: when irradiated with light, absorption spectrum; for pKa: acetonitrile solution titrated with 70% perchloric acid
Protocol: (Method of Measuring pKa of Ultraviolet Absorber Upon Light Absorption)
The ultraviolet absorber was dissolved in acetonitrile so that the absorbance at the maximum absorption wavelength became 1, and bubbling with nitrogen was performed for 15 minutes. Then, 70% perchloric acid was dropped into the solution to change the pH of the solution. At that time, the absorption spectrum of the solution was measured, and, from the absorbance at λmax, the ultraviolet absorber at each pH and the ultraviolet absorber in which hydrogen ion is added to the nitrogen of the benzotriazole skeleton or triazine skeleton of the ultraviolet absorber were obtained. From the point where these values become equal, pKa of the ultraviolet absorber upon light absorption was determined. Measurement of the absorption spectrum was performed by using a U-4000 spectrophotometer manufactured by Hitachi High-Technologies Corporation.

Row | SMILES | Photostabilizer pKa [1] | other results
1 | CCCCCCCCCCCCCCN1C(=O)NC2(CC(C)(C)N(C(C)=O)C(C)(C)C2)C1=O [8-acetyl-3-tetradecyl-7,7,9,9-tetramethyl-1,3,8-triazaspiro[4.5]decane-2,4-dione] |  | pKa [1]: 3.5
2 | CCCCCCCCOc1ccc(-c2nc(-c3ccc(C)cc3C)nc(-c3ccc(C)cc3C)n2)c(O)c1 [CYASORB UV-1164, 2,4-bis(2,4-dimethylphenyl)-6-(2-hydroxy-4-n-octyloxyphenyl)-1,3,5-triazine] |  | pKa [2]: -5
3 | CC1(C)CC(OC(=O)CCCCCCCCC(=O)OC2CC(C)(C)NC(C)(C)C2)CC(C)(C)N1 [Chimassorb 770] | 9.0 | 
4 | CCCCCCCCCCCON1C(C)(C)CC(OC(=O)OC2CC(C)(C)N(OCCCCCCCCCCC)C(C)(C)C2)CC1(C)C [LA-81] | 5.5 | 
5 | CCCCCCCCON1C(C)(C)CC(OC(=O)CCCCCCCCC(=O)OC2CC(C)(C)N(OCCCCCCCC)C(C)(C)C2)CC1(C)C [Tinuvin 123] | 4.7 | Photostabilizer pKa ([1]; listed as Tinuvin123): 4.5
6 | CCCCN(c1nc(NCCO)nc(N(CCCC)C2CC(C)(C)N(OC3CCCCC3)C(C)(C)C2)n1)C1CC(C)(C)N(OC2CCCCC2)C(C)(C)C1 [Tinuvin 152] | 7.0 | 
7 | Cc1cc(-n2nc3ccc(Cl)cc3n2)c(O)c(C(C)(C)C)c1 [Tinuvin 326, 2-(5-chloro-2-benzotriazolyl)-6-tert-butyl-p-cresol] |  | pKa [2]: -4.9
8 | CC(C)(C)CC(C)(C)c1ccc(O)c(-n2nc3ccccc3n2)c1 [Tinuvin 329] |  | Ultraviolet absorber pKa ([2]; acetonitrile, 70% perchloric acid): −4.9
9 | CCCCC(Cc1cc(C(C)(C)C)c(O)c(C(C)(C)C)c1)(C(=O)OC1CC(C)(C)N(C)C(C)(C)C1)C(=O)OC1CC(C)(C)N(C)C(C)(C)C1 [Tinuvin PA144] | 9.5 | 
